Reference: patent US8580842B2, “Heteroaryl-substituted 1,3-dihydroindol-2-one derivatives and medicaments containing them” (Abbott GmbH & Co. KG, priority 2003, dated 2013)
pKi: −log10 of the molar value. Counter-ions that a name gives are not always drawn.

target: T1, human V1b receptors (Homo sapiens, UniProt P47901); assay: Vasopressin V1b receptor binding assay; conditions: membranes from CHO-K1 cells expressing human V1b receptors, displacement of 1.5 nM 3H-AVP; read-out: Binding affinity for the vasopressin V1b receptor
T1 construct: expressed in transfected cells; host or cells: CHO-K1 (membrane preparation V1b-3H2)
T1 sequence (P47901 1-424): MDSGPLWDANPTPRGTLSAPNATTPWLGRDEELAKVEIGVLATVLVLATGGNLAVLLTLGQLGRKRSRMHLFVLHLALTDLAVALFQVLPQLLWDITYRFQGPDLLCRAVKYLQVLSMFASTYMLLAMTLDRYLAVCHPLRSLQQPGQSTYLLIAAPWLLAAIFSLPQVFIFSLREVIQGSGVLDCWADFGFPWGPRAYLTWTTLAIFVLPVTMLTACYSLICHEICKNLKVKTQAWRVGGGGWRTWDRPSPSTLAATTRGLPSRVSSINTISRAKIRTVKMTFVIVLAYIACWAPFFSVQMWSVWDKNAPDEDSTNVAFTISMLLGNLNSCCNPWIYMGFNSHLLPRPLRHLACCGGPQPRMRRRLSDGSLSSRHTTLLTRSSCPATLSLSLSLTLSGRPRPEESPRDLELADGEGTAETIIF
Experimental: Vasopressin V1b Receptor Binding Assay
The binding of the compounds of this invention to the vasopressin V1b receptor was determined with the following assay:
Compounds were dissolved in a concentration of 10^−2 M or 10^−3 M in DMSO. Further dilutions were performed with water.
The procedure for the binding assay was based on the method of Tahara et al. (Tahara A et al., Brit. J. Pharmacol. 125, 1463-1470 (1998)). Assays (0.250 ml) consisted of membranes (58 μg protein) from CHO-K1 cells permanently expressing human V1b receptors (preparation V1b-3H2, containing protease inhibitors, Roche complete Mini #1836170), 1.5 nM ^3H-AVP (8-Arg-vasopressin, NET 800) in incubation buffer (total binding) and different concentrations of test compound (displacement). Non-specific binding was defined with 10^−6 M AVP. Assays were performed in triplicate.
Incubation buffer: 50 mM Tris, 10 mM MgCl2, 0.1% BSA adjusted to pH 7.4 with HCl.
After incubation, 60 min at room temperature, bound and free radioligand was separated by filtration under vacuum through Whatman GF/B glass fibre mats using a Skatron cell harvester 7000.
Liquid scintillation counting was performed in beta-counters, Tricarb model 2000 or 2200CA (Packard). Dpm were calculated by a programme with standardisation using a standard quench series.
Evaluation of binding parameters was performed by non-linear regression analysis with SAS. The strategy of this program is similar to the program LIGAND described by Munson and Rodbard (Munson PJ and Rodbard D, Analytical Biochem 107, 220-239 (1980)).

`COc1ccc(S(=O)(=O)N2C(=O)C(c3cccnc3OC)(N3CC=C[C@H]3C(=O)N(C)C)c3cc(Cl)ccc32)c(OC)c1` (mixture of isomers) [Example 247, (S)-1-[5-Chloro-1-(2,4-dimethoxy-benzenesulfonyl)-3-(2-methoxy-pyridin-3-yl)-2-oxo-2,3-dihydro-1H-indol-3-yl]-2,5-dihydro-1H-pyrrole-2-carboxylic acid dimethylamide] and `COc1ccc(S(=O)(=O)N2C(=O)C(c3cccnc3OC)(N3CCC[C@H]3C(=O)N(C)C)c3cc(Cl)ccc32)c(OC)c1` (single isomer, unassigned) [Example 227] cannot be ordered by pKi: greater than 7.30 for the first, greater than 7.30 for the second.

First: COc1ccccc1C1(OC(=O)N2CCCCC2)C(=O)N(S(=O)(=O)c2cccc3cccnc23)c2ccc(Cl)cc21 (stereo not drawn) [Example 65, Piperidine-1-carboxylic acid 5-chloro-3-(2-methoxy-phenyl)-2-oxo-1-(quinoline-8-sulfonyl)-2,3-dihydro-1H-indol-3-yl ester]
Second: CCOc1ccccc1C1(NC(=O)N2CCN(C3CCN(C)CC3)CC2)C(=O)N(S(=O)(=O)c2cccc3cccnc23)c2ccc(OC)cc21 (stereo not drawn) [Example 83, 4-(1-Methyl-piperidin-4-yl)-piperazine-1-carboxylic acid [3-(2-ethoxy-phenyl)-5-methoxy-2-oxo-1-(quinoline-8-sulfonyl)-2,3-dihydro-1H-indol-3-yl]-amide]
The pKi of the first is lower: 6.30 to 7.30 for the first, greater than 7.30 for the second.

`COc1ccc2c(c1)C(OC(=O)N1CCN(C3CCN(C)CC3)CC1)(c1ccccc1OC)C(=O)N2S(=O)(=O)c1cccs1` (stereo not drawn) [Example 126, 4-(1-Methyl-piperidin-4-yl)-piperazine-1-carboxylic acid 5-methoxy-3-(2-methoxy-phenyl)-2-oxo-1-(thiophene-2-sulfonyl)-2,3-dihydro-1H-indol-3-yl ester dihydrochloride] and `COc1ccccc1C1(OC(=O)N2CCC(N3CCN(C)CC3)CC2)C(=O)N(S(=O)(=O)c2cccs2)c2ccc(C)cc21` (stereo not drawn) [Example 130, 4-(4-Methyl-piperazin-1-yl)-piperidine-1-carboxylic acid 3-(2-methoxy-phenyl)-5-methyl-2-oxo-1-(thiophene-2-sulfonyl)-2,3-dihydro-1H-indol-3-yl ester dihydrochloride] cannot be ordered by pKi: greater than 7.30 for the first, greater than 7.30 for the second.

`COc1ccc(S(=O)(=O)N2C(=O)C(c3cccnc3OC)(N3C[C@H](O)C[C@H]3C(=O)N(C)C)c3cc(OC(F)(F)F)ccc32)c(OC)c1` (single isomer, unassigned) [Example 245] and `COc1ccc(S(=O)(=O)N2C(=O)C(c3cccnc3OC)(N3C[C@H](O)C[C@H]3C(=O)N(C)C)c3cc(OC)ccc32)c(OC)c1` (single isomer, unassigned) [Example 230, fumarate] cannot be ordered by pKi: greater than 7.30 for the first, greater than 7.30 for the second.

`COc1ncccc1C1(N2C[C@H](O)C[C@H]2C(=O)N(C)C)C(=O)N(S(=O)(=O)c2cccs2)c2ccc(C#N)cc21` (single isomer, unassigned) [Example 277] and `COc1ccccc1S(=O)(=O)N1C(=O)C(c2cccnc2OC)(N2C[C@H](O)C[C@H]2C(=O)N(C)C)c2cc(Cl)ccc21` (single isomer, unassigned) [Example 241] fall in the same range of pKi: 6.30 to 7.30 for the first, 6.30 to 7.30 for the second.

`COc1ccccc1C1(N2C[C@H](O)C[C@H]2C(=O)N(C)C)C(=O)N(S(=O)(=O)c2cc(C)ccn2)c2ccc(Cl)cc21` (single isomer, unassigned) [Example 252] and `COc1ccccc1C1(N2C[C@H](O)C[C@H]2C(=O)N(C)C)C(=O)N(S(=O)(=O)c2ccccn2)c2ccc(Cl)cc21` (single isomer, unassigned) [Example 47] cannot be ordered by pKi: greater than 7.30 for the first, greater than 7.30 for the second.

Compared with `COc1ccccc1C1(N2C[C@H](O)C[C@H]2C(=O)N(C)C)C(=O)N(S(=O)(=O)c2cnc(Cl)c(Br)c2)c2ccc(Cl)cc21` (stereo partly drawn) [Example 59, (2S,4R)-1-[5-Chloro-1-(5-bromo-6-chloropyridine-3-sulfonyl)-3-(2-methoxy-phenyl)-2-oxo-2,3-dihydro-1H-indol-3-yl]-4-hydroxy-pyrrolidine-2-carboxylic acid dimethylamide], `COc1ccccc1C1(N2C[C@H](O)C[C@H]2C(=O)N(C)C)C(=O)N(S(=O)(=O)c2sc(Cl)cc2Br)c2ccc(Cl)cc21` (single isomer, unassigned) [Example 32] is higher in pKi: less than 6.30 for the first, 6.30 to 7.30 for the second. The second binds more tightly here.

`COc1ccc(S(=O)(=O)N2C(=O)C(c3ncccc3OC)(N3C[C@H](O)C[C@H]3C(=O)N(C)C)c3cc(Cl)ccc32)c(OC)c1` (single isomer, unassigned) [Example 9] and `COc1ccc(S(=O)(=O)N2C(=O)C(c3ncccc3C)(N3C[C@H](O)C[C@H]3C(=O)N(C)C)c3cc(Cl)ccc32)c(OC)c1` (single isomer, unassigned) [Example 222] cannot be ordered by pKi: greater than 7.30 for the first, greater than 7.30 for the second.

`COc1ncc(C2(N3C[C@H](O)C[C@H]3C(=O)N(C)C)C(=O)N(S(=O)(=O)c3ccc(C)cn3)c3ccc(Cl)cc32)c(OC)n1` (single isomer, unassigned) [Example 282] and `COc1ccc(S(=O)(=O)N2C(=O)C(c3cnc(OC)nc3OC)(N3C[C@H](O)C[C@H]3C(=O)N(C)C)c3cc(Cl)ccc32)c(OC)c1` (single isomer, unassigned) [Example 3] cannot be ordered by pKi: greater than 7.30 for the first, greater than 7.30 for the second.

`COc1ccc(S(=O)(=O)N2C(=O)C(c3cccnc3OC)(N3C[C@H](F)C[C@H]3C(=O)N(C)C)c3cc(Cl)ccc32)c(OC)c1` (single isomer, unassigned) [Example 246] and `COc1ccc(S(=O)(=O)N2C(=O)C(N[C@@H](C)C(=O)N(C)C)(c3cccnc3OC)c3cc(Cl)ccc32)c(OC)c1` (single isomer, unassigned) [Example 221] cannot be ordered by pKi: greater than 7.30 for the first, greater than 7.30 for the second.

`COc1ncccc1C1(OC(=O)N2CCN(C3CCN(C)CC3)CC2)C(=O)N(S(=O)(=O)c2cn(C)c(C)n2)c2ccc(Cl)cc21` (stereo not drawn) [Example 166, 4-(1-Methyl-piperidin-4-yl)-piperazine-1-carboxylic acid 5-chloro-1-(1,2-dimethyl-1H-imidazole-4-sulfonyl)-3-(2-methoxy-pyridin-3-yl)-2-oxo-2,3-dihydro-1H-indol-3-yl ester diacetate] and `COc1ncccc1C1(OC(=O)N2CCN(C3CCN(C)CC3)CC2)C(=O)N(S(=O)(=O)c2cn(C)cn2)c2ccc(Cl)cc21` (stereo not drawn) [Example 165, 4-(1-Methyl-piperidin-4-yl)-piperazine-1-carboxylic acid 5-chloro-3-(2-methoxy-pyridin-3-yl)-1-(1-methyl-1H-imidazole-4-sulfonyl)-2-oxo-2,3-dihydro-1H-indol-3-yl ester diacetate] fall in the same range of pKi: 6.30 to 7.30 for the first, 6.30 to 7.30 for the second.

`Cc1ccccc1C1(OC(=O)N2CCN(C3CCN(C)CC3)CC2)C(=O)N(S(=O)(=O)c2ccccn2)c2ccc(C#N)cc21` (stereo not drawn) [Example 134, 4-(1-Methyl-piperidin-4-yl)-piperazine-1-carboxylic acid 5-cyano-2-oxo-1-(pyridine-2-sulfonyl)-3-o-tolyl-2,3-dihydro-1H-indol-3-yl ester dihydrochloride] and `COc1ncccc1C1(OC(=O)N2CCN(C3CCN(C)CC3)CC2)C(=O)N(S(=O)(=O)c2ccsc2)c2ccc(Cl)cc21` (stereo not drawn) [Example 171, 4-(1-Methyl-piperidin-4-yl)-piperazine-1-carboxylic acid 5-chloro-3-(2-methoxy-pyridin-3-yl)-2-oxo-1-(thiophene-3-sulfonyl)-2,3-dihydro-1H-indol-3-yl ester diacetate] cannot be ordered by pKi: greater than 7.30 for the first, greater than 7.30 for the second.

Compared with `COc1ccc(S(=O)(=O)N2C(=O)C(OC(=O)N3CCC(N4CCN(C)CC4)CC3)(c3cccnc3OC)c3cc(C)ccc32)c(OC)c1` (stereo not drawn) [Example 107, 4-(4-Methyl-piperazin-1-yl)-piperidine-1-carboxylic acid 1-(2,4-dimethoxy-benzenesulfonyl)-3-(2-methoxy-pyridin-3-yl)-5-methyl-2-oxo-2,3-dihydro-1H-indol-3-yl ester], `COc1ncccc1C1(OC(=O)N2CCN(C3CCN(C)CC3)CC2)C(=O)N(S(=O)(=O)c2ccc(C(F)(F)F)cc2)c2ccc(Cl)cc21` (stereo not drawn) [Example 122, 4-(1-Methyl-piperidin-4-yl)-piperazine-1-carboxylic acid 5-chloro-3-(2-methoxy-pyridin-3-yl)-2-oxo-1-(4-trifluoromethyl-benzenesulfonyl)-2,3-dihydro-1H-indol-3-yl ester diacetate] is lower in pKi: greater than 7.30 for the first, 6.30 to 7.30 for the second. The first binds more tightly here.

Work on `COc1ccccc1C1(N2C[C@H](O)C[C@H]2C(=O)N(C)C)C(=O)N(S(=O)(=O)c2ccc(Br)cn2)c2ccc(Cl)cc21` (single isomer, unassigned) [Example 48] yielded a pKi greater than 7.30.
